Data on one compound can be found in article PMC11465068 (Journal of Lipid Research, 2024).

The target of this experiment is T1, rhSphK1 (recombinant human sphingosine kinase 1) (Homo sapiens, UniProt Q9NYA1).
T1 construct: gene SPHK1; commercial recombinant human enzyme from two manufacturers
The experiment in a line: S1P formation by LC-MS/MS. The class given is biochemical. To be noted: […] sphingosine, […] ATP, […] MgCl2, […] °C, […] h; range over two enzyme sources.

T1 sequence (Q9NYA1 whole entry): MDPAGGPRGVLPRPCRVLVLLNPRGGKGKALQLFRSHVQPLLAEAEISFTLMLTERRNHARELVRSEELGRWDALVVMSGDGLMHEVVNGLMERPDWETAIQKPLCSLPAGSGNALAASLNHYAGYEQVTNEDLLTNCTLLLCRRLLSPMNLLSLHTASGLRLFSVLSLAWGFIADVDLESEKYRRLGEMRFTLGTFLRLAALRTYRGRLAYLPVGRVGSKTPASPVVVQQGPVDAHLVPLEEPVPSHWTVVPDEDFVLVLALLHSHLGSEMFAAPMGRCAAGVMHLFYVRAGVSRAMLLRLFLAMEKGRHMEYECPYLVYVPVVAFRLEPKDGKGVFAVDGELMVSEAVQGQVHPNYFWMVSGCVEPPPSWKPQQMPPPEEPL

In the case of `O=C(NCc1ccncc1)C12CC3CC(C1)CC(c1ccc(Cl)cc1)(C3)C2` [ABC294640], the “% reduction of S1P formation at 50 μM” value is 32-34%.
